Reference: ChEMBL document CHEMBL4665828, “Glucosylpolyphenols as Inhibitors of Aβ-Induced Fyn Kinase Activation and Tau Phosphorylation: Synthesis, Membrane Permeability, and Exploratory Target Assessment within the Scope of Type 2 Diabetes and Alzheimer's Disease” (J Med Chem, 2020)
Active and inactive are the calls of the source. The rule behind the calls is not given here.

Columns and labels:
[1] = Uncompetitive inhibition of Saccharomyces cerevisiae alpha-glucosidase assessed as inhibition constant for inhibitor-substrate-enzyme complex formation using p-nitrophenyl glycosides as substrate measured for 125 secs by spectrophotometry analysis
[2] = Octanol/water partition coefficient, log D of compound at pH 7.4 at 1 uM incubated for 2 hrs by LC-MS analysis; format: physicochemical
[3] = molecular target: T1, Tyrosine-protein kinase Fyn (Homo sapiens, UniProt P06241); assay: Inhibition of natural amyloid beta (1 to 42) -induced Fyn activation in hiPSC neural progenitor cells assessed as reduction in Fyn production at 10 uM preincubated fot 45 mins followed by amyloid beta addition and measured after 15 mins by DAPI/Alexa fluor 594 immunostaining based assay; conditions: Induced pluripotent stem cell-derived neuron, time 60.0 min
Target sequence in this assay (P06241 2-537 limits assumed): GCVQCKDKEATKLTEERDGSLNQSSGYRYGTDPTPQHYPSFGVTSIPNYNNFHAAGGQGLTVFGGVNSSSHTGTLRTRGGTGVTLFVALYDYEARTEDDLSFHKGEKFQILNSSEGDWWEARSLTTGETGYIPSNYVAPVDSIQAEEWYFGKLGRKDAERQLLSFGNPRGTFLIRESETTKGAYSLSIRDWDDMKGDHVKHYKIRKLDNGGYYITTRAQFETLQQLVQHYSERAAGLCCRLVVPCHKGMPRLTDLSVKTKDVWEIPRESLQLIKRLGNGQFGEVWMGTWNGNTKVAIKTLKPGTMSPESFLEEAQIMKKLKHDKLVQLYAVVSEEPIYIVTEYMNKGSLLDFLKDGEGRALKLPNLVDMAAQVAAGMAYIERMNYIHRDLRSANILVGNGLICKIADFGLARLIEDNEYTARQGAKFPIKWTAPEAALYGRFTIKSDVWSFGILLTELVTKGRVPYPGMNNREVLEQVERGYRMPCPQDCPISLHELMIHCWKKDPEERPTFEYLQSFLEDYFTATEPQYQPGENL

Prunus dulcis = assay: Competitive inhibition of almond beta-glucosidase at 100 uM using p-nitrophenyl glycosides as substrate measured for 125 secs by spectrophotometry analysis relative to control; conditions: time 125.0 sec
[4] = molecular target: Cholinesterase (Equus caballus) (UniProt P81908); assay: Inhibition of equine serum BuChE at 100 uM using butyrylthiocholine iodide as substrate by Ellman's colorimetric analysis relative to control
[5] = molecular target: T1, Tyrosine-protein kinase Fyn; assay: Inhibition of amyloid beta-induced Fyn activation in hiPSC neural cells assessed as reduction in tau phosphorylation at Thr 181 residue at 10 uM measured after 4 days by DAPI/Alexa fluor 594 staining based immunocytochemistry analysis; conditions: Induced pluripotent stem cell-derived neuron, time 4.0 day
Target sequence in this assay (P06241 2-537 limits assumed): as above

Saccharomyces cerevisiae [6] = assay: Uncompetitive inhibition of Saccharomyces cerevisiae alpha-glucosidase at 100 uM using p-nitrophenyl glycosides as substrate measured for 125 secs by spectrophotometry analysis relative to control; conditions: time 125.0 sec
[7] = Competitive inhibition of almond beta-glucosidase using p-nitrophenyl glycosides as substrate measured for 125 secs by spectrophotometry analysis; set-up: species or system Prunus dulcis
[8] = molecular target: Acetylcholinesterase (Electrophorus electricus) (UniProt O42275); assay: Inhibition of electric eel AChE at 100 uM using acetylthiocholine iodide as substrate by Ellman's colorimetric analysis relative to control
[9] = Cytotoxicity against hiPSC neural cells assessed as reduction in cell viability at 10 uM incubated for 24 hrs by MTT assay; format: cell-based; conditions: human, induced pluripotent stem cell-derived neuron
[10] = molecular target: T1, Tyrosine-protein kinase Fyn; assay: Inhibition of basal Fyn activation in hiPSC neural progenitor cells assessed as reduction in pFyn levels in absence of amyloid beta at 10 uM by DAPI staining based immunofluorescence assay; conditions: induced pluripotent stem cell-derived neuron
Target sequence in this assay (P06241 whole entry): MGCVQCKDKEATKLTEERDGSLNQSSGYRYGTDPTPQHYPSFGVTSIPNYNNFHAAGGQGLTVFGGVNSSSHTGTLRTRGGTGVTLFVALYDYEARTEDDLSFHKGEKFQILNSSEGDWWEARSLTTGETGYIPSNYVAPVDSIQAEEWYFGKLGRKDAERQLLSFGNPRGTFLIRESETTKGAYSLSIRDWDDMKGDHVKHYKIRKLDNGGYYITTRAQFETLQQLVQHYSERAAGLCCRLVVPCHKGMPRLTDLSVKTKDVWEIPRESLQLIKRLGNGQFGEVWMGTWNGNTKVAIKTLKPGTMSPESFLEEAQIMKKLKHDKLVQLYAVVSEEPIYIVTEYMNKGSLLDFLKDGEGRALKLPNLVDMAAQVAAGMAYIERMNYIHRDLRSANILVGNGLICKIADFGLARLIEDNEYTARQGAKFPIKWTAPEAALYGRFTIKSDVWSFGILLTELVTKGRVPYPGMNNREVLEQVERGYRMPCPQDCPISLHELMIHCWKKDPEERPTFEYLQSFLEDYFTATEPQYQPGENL

[11] = molecular target: Amyloid-beta precursor protein (Homo sapiens) (UniProt P05067); assay: Inhibition of human amyloid beta (1 to 42) self-induced aggregation at 50 uM by Thioflavin T based fluorometric assay
[12] = Aggregation property of the compound in PBS buffer assessed as aggregate formation at 10 to 100 uM incubated for 2 hrs by light scattering spectrofluorimetric assay; format: physicochemical; conditions: dose 10-100 µM
[13] = molecular target: T1, Tyrosine-protein kinase Fyn; assay: Inhibition of Fyn activation (unknown origin) by ADP-Glo kinase assay
Target sequence in this assay (P06241 2-537 limits assumed): as the sequence (P06241 2-537 limits assumed) above

[14] = Aggregation property of the compound in PBS buffer at 10 to 100 uM incubated for 2 hrs by UV/Vis double beam spectrophotometric method; format: physicochemical; conditions: dose 10-100 µM
[15] = Cytotoxicity against hiPSC neural cells assessed as reduction in cell viability up to 50 uM incubated for 24 hrs by MTT assay; format: cell-based; conditions: human, induced pluripotent stem cell-derived neuron
[16] = Cytotoxicity against hiPSC neural cells assessed as reduction in cell viability up to 100 uM incubated for 24 hrs by MTT assay; format: cell-based; conditions: human, induced pluripotent stem cell-derived neuron
[17] = pampa, pH 7.4, 16 h
Saccharomyces cerevisiae [18] = assay: Competitive inhibition of Saccharomyces cerevisiae alpha-glucosidase at 100 uM using p-nitrophenyl glycosides as substrate measured for 125 secs by spectrophotometry analysis relative to control; conditions: time 125.0 sec
[19] = Competitive inhibition of Saccharomyces cerevisiae alpha-glucosidase assessed as inhibition constant for inhibitor-enzyme complex formation using p-nitrophenyl glycosides as substrate measured for 125 secs by spectrophotometry analysis
[20] = Aqueous solubility of the compound in 5 % DMSO at 50 to 100 uM incubated for 2 hrs; format: physicochemical; conditions: buffer, dose 50-100 µM
[21] = buffer, 100 µM
[22] = Membrane retention of compound at pH 7.4 incubated for 16 hrs by PAMPA assay; format: ADME; conditions: pH 7.4, 16 h
[23] = Membrane retention of compound assessed as partial membrane retention at pH 7.4 by LC-MS based PAMPA assay; format: ADME

Acetylcholinesterase (Electrophorus electricus), sequence (O42275 24-633 limits assumed): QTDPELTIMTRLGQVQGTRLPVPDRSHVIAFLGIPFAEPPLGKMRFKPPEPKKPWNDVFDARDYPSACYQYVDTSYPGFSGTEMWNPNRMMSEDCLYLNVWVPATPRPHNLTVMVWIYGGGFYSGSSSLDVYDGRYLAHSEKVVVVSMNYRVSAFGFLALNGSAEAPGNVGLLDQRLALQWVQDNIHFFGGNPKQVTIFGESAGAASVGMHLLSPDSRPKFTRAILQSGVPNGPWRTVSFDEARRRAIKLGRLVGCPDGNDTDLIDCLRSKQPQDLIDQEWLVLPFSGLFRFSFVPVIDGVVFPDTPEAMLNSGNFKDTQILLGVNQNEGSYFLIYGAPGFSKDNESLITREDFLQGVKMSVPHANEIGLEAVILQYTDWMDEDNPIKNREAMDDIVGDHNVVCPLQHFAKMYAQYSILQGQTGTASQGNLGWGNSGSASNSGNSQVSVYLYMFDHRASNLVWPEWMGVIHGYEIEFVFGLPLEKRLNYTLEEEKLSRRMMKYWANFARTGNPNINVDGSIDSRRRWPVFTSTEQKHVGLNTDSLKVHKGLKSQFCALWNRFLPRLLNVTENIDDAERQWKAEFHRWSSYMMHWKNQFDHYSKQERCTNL
Amyloid-beta precursor protein (Homo sapiens), sequence (P05067 whole entry): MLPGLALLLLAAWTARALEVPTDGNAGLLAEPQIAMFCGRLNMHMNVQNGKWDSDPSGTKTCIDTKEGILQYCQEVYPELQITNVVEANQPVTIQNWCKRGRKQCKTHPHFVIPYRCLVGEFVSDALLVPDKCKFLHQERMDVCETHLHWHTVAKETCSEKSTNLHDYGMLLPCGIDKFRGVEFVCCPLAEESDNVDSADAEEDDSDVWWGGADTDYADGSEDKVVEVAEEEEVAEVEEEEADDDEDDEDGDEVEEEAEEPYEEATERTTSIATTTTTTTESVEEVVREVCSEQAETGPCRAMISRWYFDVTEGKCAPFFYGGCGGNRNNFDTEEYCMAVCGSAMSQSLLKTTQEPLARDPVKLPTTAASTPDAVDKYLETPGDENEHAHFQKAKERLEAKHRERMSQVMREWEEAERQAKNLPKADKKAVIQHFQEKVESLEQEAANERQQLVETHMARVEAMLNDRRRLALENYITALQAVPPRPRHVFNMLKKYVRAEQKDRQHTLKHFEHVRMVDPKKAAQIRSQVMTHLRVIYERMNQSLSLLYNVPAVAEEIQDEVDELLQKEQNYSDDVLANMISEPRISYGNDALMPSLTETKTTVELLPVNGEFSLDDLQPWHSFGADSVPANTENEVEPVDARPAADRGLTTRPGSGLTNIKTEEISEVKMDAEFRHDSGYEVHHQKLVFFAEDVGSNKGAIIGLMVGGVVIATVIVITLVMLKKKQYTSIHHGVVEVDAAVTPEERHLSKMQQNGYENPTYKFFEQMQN
Cholinesterase (Equus caballus), sequence (P81908 whole entry): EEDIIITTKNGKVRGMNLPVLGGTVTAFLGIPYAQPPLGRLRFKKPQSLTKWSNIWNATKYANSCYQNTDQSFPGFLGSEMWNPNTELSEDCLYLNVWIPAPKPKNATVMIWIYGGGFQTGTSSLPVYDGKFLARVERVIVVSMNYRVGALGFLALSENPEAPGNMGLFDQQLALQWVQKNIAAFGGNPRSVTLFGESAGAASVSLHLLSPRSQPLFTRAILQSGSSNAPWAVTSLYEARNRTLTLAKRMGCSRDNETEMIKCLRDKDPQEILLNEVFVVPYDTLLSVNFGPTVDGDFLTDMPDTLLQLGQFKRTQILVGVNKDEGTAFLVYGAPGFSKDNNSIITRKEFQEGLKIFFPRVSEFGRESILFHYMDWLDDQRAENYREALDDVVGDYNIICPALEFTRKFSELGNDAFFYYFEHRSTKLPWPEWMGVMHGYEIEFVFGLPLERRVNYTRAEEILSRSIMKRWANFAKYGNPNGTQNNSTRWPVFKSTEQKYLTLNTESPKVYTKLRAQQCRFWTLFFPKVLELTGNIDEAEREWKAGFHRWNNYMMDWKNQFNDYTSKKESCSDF

Structure (SMILES)	logD at 2 h, 1 µM [2]	inhibition [3]	inhibition [4]	inhibition [5]	inhibition [8]	Activity [9]	inhibition (INH) [10]	inhibition [11]	Activity [12]	Activity [14]	other results
O=c1c(-c2ccc(O)cc2)coc2cc(O)cc(O)c12 [GENISTEIN]	3.3	Active	41%	Active	12%	Non-Toxic	–	–	–	–	Ki [1]: 12 µM; inhibition (Prunus dulcis): 44%; inhibition (Saccharomyces cerevisiae [6]): 84%; Ki [7]: 66 µM
COC[C@H]1O[C@@H](c2c(O)ccc3ccccc23)[C@H](OC)[C@@H](OC)[C@@H]1OC	2.7	–	23%	–	inactive	Non-Toxic	Not Active	–	–	–	–
Oc1ccc(OC2O[C@H](COCc3ccccc3)[C@@H](OCc3ccccc3)[C@H](OCc3ccccc3)[C@H]2OCc2ccccc2)cc1 (stereo partly drawn)	–	–	–	–	–	–	–	inactive	–	–	–
COC[C@H]1O[C@@H](c2c(O)cc(O)cc2O)[C@H](OC)[C@@H](OC)[C@@H]1OC	1.6	Active	10%	inactive	inactive	Non-Toxic	Not Active	–	Not Active	Not Active	inhibition [13]: Active
O=C(Cc1ccccc1)c1c(O)cc(O)c([C@@H]2O[C@H](CO)[C@@H](O)[C@H](O)[C@H]2O)c1O	–	–	17%	–	inactive	–	–	–	–	–	–
COC[C@H]1O[C@@H](c2c(O)cc(O)c(C(C)=O)c2O)[C@H](OC)[C@@H](OC)[C@@H]1OC	2.3	Active	16%	Active	inactive	Non-Toxic	Not Active	inactive	Not Active	Not Active	Activity [15]: Non-Toxic; inhibition [13]: inactive
O=C(Oc1ccc([C@@H]2O[C@H](CO)[C@@H](O)[C@H](O)[C@H]2O)cc1OC(=O)c1ccccc1)c1ccccc1	–	Active	39%	Active	inactive	Non-Toxic	Not Active	inactive	Not Active	Not Active	Activity [16]: Non-Toxic
CC(=O)c1c(O)cc(O)c([C@@H]2O[C@H](CO)[C@@H](O)[C@H](O)[C@H]2O)c1O	–	Active	15%	Active	inactive	Non-Toxic	Not Active	–	Not Active	Not Active	logPeff [17]: Bld; Activity [16]: Non-Toxic
COC[C@H]1O[C@@H](c2ccc(O)c(O)c2)[C@H](OC)[C@@H](OC)[C@@H]1OC	1.1	–	16%	–	15%	Non-Toxic	Not Active	inactive	–	–	–
O=C(Oc1ccccc1O[C@H]1O[C@H](CO)[C@@H](O)[C@H](O)[C@H]1O)c1ccccc1	0.1	–	17%	inactive	10%	Non-Toxic	Not Active	inactive	Not Active	Not Active	inhibition (Saccharomyces cerevisiae [18]): 74%; Ki [19]: 39 µM
COC[C@H]1O[C@@H](c2cc(OC(=O)c3ccccc3)ccc2OC(=O)c2ccccc2)[C@H](OC)[C@@H](OC)[C@@H]1OC	> 2.5	Active	16%	Active	19%	Non-Toxic	Not Active	–	–	–	logPeff [17]: Not Active; solubility [20]: Insoluble; solubility [21]: Insoluble
COC[C@H]1O[C@@H](c2cc(OC(=O)c3ccccc3)ccc2O)[C@H](OC)[C@@H](OC)[C@@H]1OC	3.2	–	12%	–	14%	Non-Toxic	Not Active	–	–	–	Drug uptake [22]: 80%
OC[C@H]1O[C@@H](c2c(O)ccc3ccccc23)[C@H](O)[C@@H](O)[C@@H]1O	–	Active	10%	–	inactive	Non-Toxic	Not Active	inactive	Not Active	Not Active	–
O=c1c(-c2ccc(O)cc2)coc2c([C@@H]3O[C@H](CO)[C@@H](O)[C@H](O)[C@H]3O)c(O)cc(O)c12	-0.1	–	–	–	–	–	–	–	–	–	–
O=C(Cc1ccccc1)c1c(O)cc(O)cc1O	–	–	–	–	–	–	–	inactive	–	–	–
COC[C@H]1O[C@@H](c2cc(O)ccc2O)[C@H](OC)[C@@H](OC)[C@@H]1OC	–	–	21%	Active	inactive	Non-Toxic	Not Active	inactive	Not Active	Not Active	inhibition [13]: Active
COC[C@H]1O[C@@H](c2ccc(OC(=O)c3ccccc3)c(OC(=O)c3ccccc3)c2)[C@H](OC)[C@@H](OC)[C@@H]1OC	> 2.5	Active	12%	Active	inactive	Non-Toxic	Not Active	inactive	–	–	Drug uptake [23]: Active; Drug uptake [22]: Active; solubility [20]: Insoluble; solubility [21]: Insoluble
O=C(Cc1ccccc1)Oc1cc(O)cc(O)c1	–	–	–	–	–	–	–	inactive	–	–	–
O=C(Oc1ccc(OC(=O)c2ccccc2)c([C@@H]2O[C@H](CO)[C@@H](O)[C@H](O)[C@H]2O)c1)c1ccccc1	2	–	21%	–	inactive	Non-Toxic	Not Active	–	–	–	–
O=C(Oc1ccc(O)c([C@@H]2O[C@H](CO)[C@@H](O)[C@H](O)[C@H]2O)c1)c1ccccc1	< 0.5	Active	inactive	–	inactive	Non-Toxic	Not Active	inactive	Not Active	Not Active	–
O=C(Oc1ccc(O[C@H]2O[C@H](CO)[C@@H](O)[C@H](O)[C@H]2O)cc1)c1ccccc1	1	–	10%	Active	inactive	Non-Toxic	Not Active	–	–	–	logPeff [17]: Not Active; Activity [16]: Non-Toxic
CC(=O)N1CCN(c2ccc(OCC3COC(Cn4ccnc4)(c4ccc(Cl)cc4Cl)O3)cc2)CC1 (stereo not drawn) [KETOCONAZOLE]	–	–	–	–	–	–	–	–	Not Active	–	–
